Measured values taken from patent publication US20200369630A1, “HERBICIDALLY ACTIVE 3-PHENYL-5-TRIFLUOROMETHYLISOXAZOLINE-5-CARBOXAMIDES OF CYCLOPENTYLCARBOXYLIC ACIDS AND ESTERS” (Bayer Aktiengesellschaft, priority 2017, published 2020).

Key:
Experiment in all cases: Post-emergence herbicidal action
Assay type in all cases: in vivo
DIGSA = conditions: Table C3, post-emergence, 320 g/ha, rated visually after about 3 weeks
Description: (§1) Seeds of monocotyledonous and dicotyledonous weeds and crop plants are placed in sandy loam in plastic or wood-fiber pots, covered with soil and cultivated in a greenhouse under controlled growth conditions. 2 to 3 weeks after sowing, the test plants are treated at the one-leaf stage. The compounds of the invention, formulated in the form of wettable powders (WP) or as emulsion concentrates (EC), are then sprayed onto the green parts of the plants as aqueous suspension or emulsion with addition of 0.5% additive at a water application rate of […] (converted). After the test plants had been kept in the greenhouse under optimum growth conditions for about 3 weeks, the activity of the preparations is rated visually in comparison to untreated controls. For example, 100% activity=the plants have died, 0% activity=like control plants.

[1] = tested on: AMARE: Amaranthus retroflexus; conditions: rated visually after about 3 weeks
Description: as §1, with “[table] Seeds” for “Seeds”

VERPE: Veronica persica = conditions: rated visually after about 3 weeks
Description: as §1, with “[table] Seeds” for “Seeds”

[2] = tested on: ECHCG: Echinochloa crus-galli; conditions: rated visually after about 3 weeks
Description: as §1, with “[table] Seeds” for “Seeds”

[3] = tested on: POLCO: Polygonum convolvulus; conditions: rated visually after about 3 weeks
Description: as §1, with “[table] Seeds” for “Seeds”

LOLRI: Lolium rigidum = conditions: rated visually after about 3 weeks
Description: as §1, with “[table] Seeds” for “Seeds”

HORMU: Hordeum murinum = conditions: rated visually after about 3 weeks
Description: as §1, with “[table] Seeds” for “Seeds”

SETVI: Setaria viridis = conditions: Table C3, post-emergence, 320 g/ha, rated visually after about 3 weeks
Description: as §1, with “[table] Seeds” for “Seeds”

AVEFA: Avena fatua = conditions: rated visually after about 3 weeks
Description: as §1, with “[table] Seeds” for “Seeds”

[4] = tested on: ALOMY: Alopecurus myosuroides; conditions: rated visually after about 3 weeks
Description: as §1, with “[table] Seeds” for “Seeds”

VIOTR: Viola tricolor = conditions: Table C3, post-emergence, 320 g/ha, rated visually after about 3 weeks
Description: as §1, with “[table] Seeds” for “Seeds”

STEME: Stellaria media = conditions: Table C2, post-emergence, dosage 320 (0.32 kg of active substance per hectare), rated visually after about 3 weeks
Description: as §1, with “[table] Seeds” for “Seeds”

[5] = Table C3, post-emergence, 320 g/ha
[6] = Table C2, post-emergence, dosage 320 (0.32 kg of active substance per hectare)

| SMILES | Herbicidal action against [%] DIGSA (DIGSA) | Herbicidal action against [%] AMARE [1, 5] | Herbicidal action against [%] VERPE (VERPE: Veronica persica; [5]) | Herbicidal action against [%] ECHCG [2, 5] | Herbicidal action against [%] POLCO [3, 5] | Herbicidal action against [%] LOLRI (LOLRI: Lolium rigidum; [5]) | Herbicidal action against [%] HORMU (HORMU: Hordeum murinum; [5]) | Herbicidal action against [%] SETVI (SETVI: Setaria viridis) | Herbicidal action against [%] AVEFA (AVEFA: Avena fatua; [5]) | Herbicidal action against [%] ALOMY [4, 5] | Herbicidal action against [%] VIOTR (VIOTR: Viola tricolor) | Herbicidal action against [%] AMARE [1, 6] | Herbicidal action against [%] STEME (STEME: Stellaria media) | Herbicidal action against [%] VERPE (VERPE: Veronica persica; [6]) | Herbicidal action against [%] ECHCG [2, 6] | Herbicidal action against [%] POLCO [3, 6] | Herbicidal action against [%] LOLRI (LOLRI: Lolium rigidum; [6]) | Herbicidal action against [%] HORMU (HORMU: Hordeum murinum; [6]) | Herbicidal action against [%] AVEFA (AVEFA: Avena fatua; [6]) | Herbicidal action against [%] ALOMY [4, 6] |
| --- | --- | --- | --- | --- | --- | --- | --- | --- | --- | --- | --- | --- | --- | --- | --- | --- | --- | --- | --- | --- |
| Cc1cc(F)cc(C2=NOC(C(=O)NC3CCC(C(=O)OCCCl)C3)(C(F)(F)F)C2)c1 (mixture of isomers) [Example I-574] | 80% | 100% | 90% | 90% | 80% | 90% | 80% | 90% | 100% | 100% | 80% |  |  |  |  |  |  |  |  |  |
| Cc1cc(F)cc(C2=NOC(C(=O)NC3CCC(C(=O)OCC(F)(F)F)C3)(C(F)(F)F)C2)c1 (mixture of isomers) [Example I-580] | 90% | 90% | 90% | 80% | 80% | 90% | 90% | 90% | 100% | 90% | 100% |  |  |  |  |  |  |  |  |  |
| O=C(O)[C@@H]1CC[C@H](NC(=O)[C@@]2(C(F)(F)F)CC(c3cc(F)cc(F)c3)=NO2)C1 [Example I-11, (1R,3S)-3-({[(5R)-3-(3,5-difluorophenyl)-5-(trifluoromethyl)-4,5-dihydro-1,2-oxazol-5-yl]carbonyl}amino)cyclopentanecarboxylic acid] |  |  |  |  |  |  |  |  |  |  |  | 80% | 90% | 80% | 80% | 80% | 90% | 80% | 90% | 80% |
| COC(=O)C1CCC(NC(=O)C2(C(F)(F)F)CC(c3cc(C)cc(F)c3)=NO2)C1 (mixture of isomers) [Example I-537] | 90% | 100% | 100% | 100% | 90% | 90% | 80% | 90% | 90% | 90% | 100% |  |  |  |  |  |  |  |  |  |
| COC(=O)C1CCC(NC(=O)C2(C(F)(F)F)CC(c3cc(C)cc(Cl)c3)=NO2)C1 (mixture of isomers) [Example I-802] |  |  |  |  |  |  |  |  |  |  |  | 90% | 90% | 90% | 80% | 100% | 90% | 80% | 100% | 90% |
| CCOC(=O)C1CCC(NC(=O)C2(C(F)(F)F)CC(c3cc(C)cc(Cl)c3)=NO2)C1 (mixture of isomers) [Example I-808] | 90% | 80% | 90% | 80% | 100% | 90% | 90% | 90% | 90% | 90% | 80% |  |  |  |  |  |  |  |  |  |
| CC(C)(C)OC(=O)[C@@H]1CC[C@H](NC(=O)[C@@]2(C(F)(F)F)CC(c3cc(F)cc(F)c3)=NO2)C1 [Example I-95] |  |  |  |  |  |  |  |  |  |  |  | 80% | 90% | 80% | 80% | 90% | 100% | 90% | 100% | 90% |
